Data set [1] addresses T1, HBV Cp (Hepatitis B virus genotype D subtype ayw, UniProt P03146, R150C). It counts as binding.
Data set [2] concerns the target T1, HBV Cp. To be noted: HTS of commercial libraries; cited from earlier work.
Data set [3] is described as follows: Aqueous solubility assay in DPBS. It counts as physicochemical. To be noted: thermodynamic, 72 h, ambient temperature.
A further data set addresses HBV capsid (Hepatitis B virus genotype D subtype ayw, UniProt P03146, R150C). The experiment in a line: Transmission electron microscopy of HBV capsid assembly. The class given is biochemical. To be noted: compared to DMSO control.

With “5-Amino-4-carbamothioyl-N-(3,4-difluorophenyl)-3-methylthiophene-2-carboxamide [Compound 13]”, the “Cp binding in TSA, in words” value on HBV Cp [1] is given as “Strong binding”.
For the compound `Cc1c(C(=O)Nc2ccccc2)sc(N)c1C(N)=O` [Compound 11, 5-Amino-3-methyl-N2-phenylthiophene-2,4-dicarboxamide], the “Binding to HBV Cp in TSA (HTS), in words” value on HBV Cp [2] is “strong binder”.
As to `Cc1c(C(=O)Nc2ccccc2)sc(NC(=O)N2CCOCC2)c1C(N)=O` [Compound 12a, 3-Methyl-5-(morpholine-4-carboxamido)-N2-phenylthiophene-2,4-dicarboxamide], the “Cp binding in TSA, in words” value at HBV Cp [1] is “completely inactive”.
On the same count and under the same terms, the same measure for `Cc1c(C(=O)Nc2ccccc2)sc(-n2cnnn2)c1C(N)=O` [Compound 12k]: “completely inactive”; for `Cc1c(C(=O)Nc2ccccc2)sc(N)c1C#N` [Compound 14a]: “loss of binding affinity”.
`Cc1c(C(=O)Nc2cc(F)c(F)c(Cl)c2)sc(N)c1C#N` [Compound 14d]: the “Cp binding in TSA, in words” value on HBV Cp [1] was “loss of binding affinity”.
Same read-out and setting: the same measure for `Cc1c(C(=O)Nc2ccc(F)c(F)c2)sc(N)c1C(=O)NC1CCCC1` [Compound 16m]: “retained strong Cp binding”; for `Cc1c(C(=O)NCc2ccccc2)sc(N)c1C(N)=O` [Compound 19a]: “strong Cp binding was preserved”.
In the case of `COc1ccc(NC(=O)c2sc(N)c(C(N)=O)c2C)cc1` [Compound 19b], the “Cp binding in TSA, in words” value on HBV Cp [1] was “Cp binding was preserved”.
Same read-out and setting: the same measure for `Cc1c(C(=O)Nc2ccc(F)cc2)sc(N)c1C(N)=O` [Compound 19e]: “strong Cp binding”.
In the case of `Cc1c(C(=O)Nc2ccc(F)c(F)c2)sc(N)c1C(N)=O` [Compound 19g], the “Aqueous Solubility” value in data set [3] was “poor aqueous solubility”.
Turning to `Cc1cc(NC(=O)c2sc(N)c(C(N)=O)c2C)ccc1F` [Compound 19h], at HBV Cp [1], the “Cp binding in TSA, in words” value was “only the denaturation peak corresponding to fully assemble capsid was observed”. Moreover, the “Effect on HBV capsid assembly (TEM)” value at HBV capsid is “promoted the aggregation of HBV capsid”.
For `Cc1c(C(=O)Nc2ccc(F)c(C#N)c2)sc(N)c1C(N)=O` [Compound 19l], in data set [3], the “Aqueous Solubility” value was “poor aqueous solubility”.
On the same count and under the same terms, under `Cc1c(C(=O)Nc2ccc(F)c(C(F)F)c2)sc(N)c1C(N)=O` [Compound 19o] stands “poor aqueous solubility”.
